Results published in patent publication US11840686B2, “Modulation of prekallikrein (PKK) expression” (Ionis Pharmaceuticals, Inc., priority 2013, dated 2023).
Strand notation (5' to 3'): a small letter for the sugar, then the base; units joined by * are phosphorothioate-linked, units joined directly phosphodiester-linked; [ ] holds rarer units or linkages, { } end groups; capitals alone tell only the bases. e = 2'-O-(2-methoxyethyl) (MOE); k = constrained ethyl (cEt); [5mC] = 5-methylcytosine; d = 2'-deoxy (DNA)

These substances were tested on human PKK mRNA (assay: Antisense inhibition of human PKK mRNA in HepaRG cells, 1,000 nM, MOE/deoxy/cEt oligonucleotides (Example 3)). Conditions: HepaRG cells, electroporation with 1,000 nM antisense oligonucleotide, approximately 24 hours, primer probe set RTS3454, relative to untreated control cells; experiment of Table 23.
Format: cell-based
Outline: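 HepaRG cells at 20,000 per well electroporated with 1,000 nM 16-mer MOE/cEt/deoxy gapmers (phosphorothioate, 5-methylcytosine). After about 24 h, PKK mRNA measured by qRT-PCR with primer probe set RTS3454, normalized to RIBOGREEN total RNA. Reported as percent inhibition versus untreated cells.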

| Substance | % inhibition [%] |
| --- | --- |
| 547994 (antisense e[5mC]*e[5mC]*kA*dT*d[5mC]*d[5mC]*dA*dT*dA*dG*dA*dT*dA*kA*kT*e[5mC]) [compound 547994] | 53 |
| 547995 (antisense eG*eT*kG*dT*d[5mC]*d[5mC]*d[5mC]*dA*dT*dA*d[5mC]*dG*d[5mC]*kA*kA*eT) [compound 547995] | 64 |
| 547996 (antisense eT*eG*kT*dG*dT*d[5mC]*d[5mC]*d[5mC]*dA*dT*dA*d[5mC]*dG*k[5mC]*kA*eA) [compound 547996] | 65 |

Same assay, conditions: HepaRG cells, electroporation with 1,000 nM antisense oligonucleotide, approximately 24 hours, primer probe set RTS3454, relative to untreated control cells; experiment of Table 24

| Substance | % inhibition [%] |
| --- | --- |
| 547999 (antisense e[5mC]*e[5mC]*kT*dT*dG*dT*dG*dT*d[5mC]*d[5mC]*d[5mC]*dA*dT*kA*k[5mC]*eG) [compound 547999] | 50 |
| 548000 (antisense e[5mC]*e[5mC]*k[5mC]*dT*dT*dG*dT*dG*dT*d[5mC]*d[5mC]*d[5mC]*dA*kT*kA*e[5mC]) [compound 548000] | 54 |
| 548001 (antisense eA*e[5mC]*k[5mC]*dA*dG*dA*dG*d[5mC]*dT*d[5mC]*d[5mC]*d[5mC]*dT*kT*kG*eT) [compound 548001] | 64 |
| 548002 (antisense eA*eA*k[5mC]*d[5mC]*dA*dG*dA*dG*d[5mC]*dT*d[5mC]*d[5mC]*d[5mC]*kT*kT*eG) [compound 548002] | 56 |
| 548003 (eT*eA*kA*d[5mC]*d[5mC]*dA*dG*dA*dG*d[5mC]*dT*d[5mC]*d[5mC]*k[5mC]*kT*eT; antisense) [compound 548003] | 66 |
| 548006 (e[5mC]*eA*kA*dA*dG*dA*dG*dT*dA*dA*d[5mC]*d[5mC]*dA*kG*kA*eG; antisense) [compound 548006] | 54 |
| 548007 (e[5mC]*eT*k[5mC]*dA*dA*dA*dG*dA*dG*dT*dA*dA*d[5mC]*k[5mC]*kA*eG; antisense) [compound 548007] | 70 |
| 548008 (eT*e[5mC]*kT*d[5mC]*dA*dA*dA*dG*dA*dG*dT*dA*dA*k[5mC]*k[5mC]*eA; antisense) [compound 548008] | 71 |
| 548009 (eG*eT*kT*dA*d[5mC]*dA*d[5mC]*dA*dA*dT*d[5mC]*dT*d[5mC]*kA*kA*eA; antisense) [compound 548009] | 47 |
| 548011 (e[5mC]*e[5mC]*kA*dG*dT*dG*dT*dT*dA*d[5mC]*dA*d[5mC]*dA*kA*kT*e[5mC]; antisense) [compound 548011] | 14 |
| 548012 (eT*e[5mC]*k[5mC]*d[5mC]*d[5mC]*dA*dG*dT*dG*dT*dT*dA*d[5mC]*kA*k[5mC]*eA; antisense) [compound 548012] | 3 |
| 548013 (eG*eT*k[5mC]*d[5mC]*d[5mC]*d[5mC]*dA*dG*dT*dG*dT*dT*dA*k[5mC]*kA*e[5mC]; antisense) [compound 548013] | 37 |
| 548014 (eT*eG*kT*d[5mC]*d[5mC]*d[5mC]*d[5mC]*dA*dG*dT*dG*dT*dT*kA*k[5mC]*eA; antisense) [compound 548014] | 31 |
| 548015 (eT*eT*kG*dT*d[5mC]*d[5mC]*d[5mC]*d[5mC]*dA*dG*dT*dG*dT*kT*kA*e[5mC]; antisense) [compound 548015] | 50 |
| 548016 (eA*eA*kG*dA*dG*dT*dT*dT*dG*dT*dT*d[5mC]*d[5mC]*kT*k[5mC]*e[5mC]; antisense) [compound 548016] | 55 |
| 548017 (e[5mC]*eA*kA*dG*dA*dA*dG*dA*dG*dT*dT*dT*dG*kT*kT*e[5mC]; antisense) [compound 548017] | 3 |
| 548018 (e[5mC]*e[5mC]*kA*dA*dG*dA*dA*dG*dA*dG*dT*dT*dT*kG*kT*eT; antisense) [compound 548018] | 22 |
| 548019 (e[5mC]*e[5mC]*k[5mC]*d[5mC]*dA*dA*dG*dA*dA*dG*dA*dG*dT*kT*kT*eG; antisense) [compound 548019] | 24 |
| 548020 (eT*e[5mC]*k[5mC]*d[5mC]*d[5mC]*dA*dA*dG*dA*dA*dG*dA*dG*kT*kT*eT; antisense) [compound 548020] | 76 |

| Substance | % inhibition [%] |
| --- | --- |
| 548021 (e[5mC]*eA*k[5mC]*dT*d[5mC]*dT*d[5mC]*d[5mC]*d[5mC]*d[5mC]*dA*dA*dG*kA*kA*eG; antisense) [compound 548021] | 0 |
| 548022 (e[5mC]*e[5mC]*kA*d[5mC]*dT*d[5mC]*dT*d[5mC]*d[5mC]*d[5mC]*d[5mC]*dA*dA*kG*kA*eA; antisense) [compound 548022] | 69 |
| 548023 (eG*e[5mC]*kT*dT*d[5mC]*dA*d[5mC]*d[5mC]*dT*dG*d[5mC]*dA*dG*kG*k[5mC]*eT; antisense) [compound 548023] | 58 |
| 548025 (eT*eG*kA*dG*d[5mC]*dT*dG*dT*d[5mC]*dA*dG*d[5mC]*dT*kT*k[5mC]*eA; antisense) [compound 548025] | 66 |
| 548026 (eG*eT*k[5mC]*d[5mC]*dT*dA*dT*dG*dA*dG*dT*dG*dA*k[5mC]*k[5mC]*e[5mC]; antisense) [compound 548026] | 52 |
| 548027 (eG*eT*kG*dT*d[5mC]*d[5mC]*dT*dA*dT*dG*dA*dG*dT*kG*kA*e[5mC]; antisense) [compound 548027] | 18 |
| 548028 (eG*eG*kT*dG*dT*d[5mC]*d[5mC]*dT*dA*dT*dG*dA*dG*kT*kG*eA; antisense) [compound 548028] | 38 |
| 548029 (eT*eG*kG*dT*dG*dT*d[5mC]*d[5mC]*dT*dA*dT*dG*dA*kG*kT*eG; antisense) [compound 548029] | 12 |
| 548030 (e[5mC]*eT*kG*dG*dT*dG*dT*d[5mC]*d[5mC]*dT*dA*dT*dG*kA*kG*eT; antisense) [compound 548030] | 52 |
| 548031 (eG*eA*kT*dG*d[5mC]*dG*d[5mC]*d[5mC]*dA*dA*dA*d[5mC]*dA*kT*k[5mC]*e[5mC]; antisense) [compound 548031] | 73 |
| 548032 (eA*eG*kA*dT*dG*d[5mC]*dG*d[5mC]*d[5mC]*dA*dA*dA*d[5mC]*kA*kT*e[5mC]; antisense) [compound 548032] | 51 |
| 548034 (eA*eT*kA*dG*dA*dT*dG*d[5mC]*dG*d[5mC]*d[5mC]*dA*dA*kA*k[5mC]*eA; antisense) [compound 548034] | 31 |
| 548035 (e[5mC]*eA*k[5mC]*dT*dA*dT*dA*dG*dA*dT*dG*d[5mC]*dG*k[5mC]*k[5mC]*eA; antisense) [compound 548035] | 44 |
| 548036 (e[5mC]*e[5mC]*kA*d[5mC]*dT*dA*dT*dA*dG*dA*dT*dG*d[5mC]*kG*k[5mC]*e[5mC]; antisense) [compound 548036] | 74 |
| 548037 (eA*eA*kT*dG*dT*d[5mC]*dT*dG*dA*d[5mC]*dA*dG*dA*kT*kT*eT; antisense) [compound 548037] | 70 |
| 548038 (eT*eA*kA*dT*dG*dT*d[5mC]*dT*dG*dA*d[5mC]*dA*dG*kA*kT*eT; antisense) [compound 548038] | 67 |
| 548039 (eG*eA*kA*dA*dG*dG*dT*dG*dT*dA*dT*d[5mC]*dT*kT*kT*eT; antisense) [compound 548039] | 29 |
| 548040 (eG*eT*kG*dA*dG*dA*dA*dA*dG*dG*dT*dG*dT*kA*kT*e[5mC]; antisense) [compound 548040] | 62 |
